# Values quoted from earlier work in patent US20150024055A1, “ENHANCED IMMEDIATE RELEASE FORMULATIONS OF TOPIRAMATE” (Supernus Pharmaceuticals, Inc., priority 2006, published 2015).
# Columns and labels:
# [1] = in vivo
smiles,measurement,setting,value
CC1(C)O[C@@H]2[C@@H](CO[C@@]3(COS(N)(=O)=O)OC(C)(C)O[C@@H]23)O1 [Topiramate],solubility in organic solvents,"acetone, dimethylsulfoxide and ethanol",soluble
same,solubility in alkaline solutions,alkaline solutions containing sodium hydroxide or sodium phosphate,soluble
same,solubility of topiramate in water,"water, room temperature",about 9.8 mg/ml
same,time to reach peak plasma levels,[1],about two
